Values of other authors, collected in PubChem BioAssay AID1259409 (Chemical Carcinogenesis Research Information System (CCRIS), 2018).

Tested on: rodent chemically induced tumor inhibition, incidence and multiplicity
Assay: CCRIS tumor inhibitor studies
Settings: Route [Inhibitor]: ORAL

For S=C=NCCc1ccccc1, the “tumour outcome (control, treated, inhibition, significance)” value (Carcinogen: DIETHYLNITROSAMINE, 55-18-5, N-METHYL-N-NITROSOUREA, 684-93-5, N-BUTYL-N-(4-HYDROXYBUTYL)NITROSAMINE, 3817-11-6, DIMETHY, Carcinogen: DIETHYLNITROSAMINE, 55-18-5, N-METHYL-N-NITROSOUREA, 684-93-5, N-BUTYL-N-(4-HYDROXYBUTYL)NITROSAMINE, 3817-11-6, DIMETHY, Dose [Inhibitor]: 0, 0.1% IN THE DIET FOR 30 D BEGINNING 1 DAY PRIOR TO CARCINOGEN TREATMENT (STUDY DURATION: 28 WK), Species: RAT, Strain/Sex: F344/MALE, Target Tissue: Type of Lesion: LARGE INTESTINE: ADENOMA, Dose [Carcinogen]: 100 MG/KG BW DEN ONCE FOLLOWED BY 20 MG/KG BW MNU 4 TIMES AND 0.05% BBN IN DRINKING WATER DURING FIRST 2 WK THEN 40 MG/K, Promoter: NONE USED) is given as 27%, 54%, -100%, not significant, the “tumour outcome (control, treated, inhibition, significance)” value (Carcinogen: DIETHYLNITROSAMINE, 55-18-5, N-METHYL-N-NITROSOUREA, 684-93-5, N-BUTYL-N-(4-HYDROXYBUTYL)NITROSAMINE, 3817-11-6, DIMETHY, Carcinogen: DIETHYLNITROSAMINE, 55-18-5, N-METHYL-N-NITROSOUREA, 684-93-5, N-BUTYL-N-(4-HYDROXYBUTYL)NITROSAMINE, 3817-11-6, DIMETHY, Dose [Inhibitor]: 0, 0.1% IN THE DIET FOR 30 D BEGINNING 1 DAY PRIOR TO CARCINOGEN TREATMENT (STUDY DURATION: 28 WK), Species: RAT, Strain/Sex: F344/MALE, Target Tissue: Type of Lesion: SMALL INTESTINE: CARCINOMA, Dose [Carcinogen]: 100 MG/KG BW DEN ONCE FOLLOWED BY 20 MG/KG BW MNU 4 TIMES AND 0.05% BBN IN DRINKING WATER DURING FIRST 2 WK THEN 40 MG/K, Promoter: NONE USED) is given as 7%, 23%, -229%, not significant and the “tumour outcome (control, treated, inhibition, significance)” value (Carcinogen: DIETHYLNITROSAMINE, 55-18-5, N-METHYL-N-NITROSOUREA, 684-93-5, N-BUTYL-N-(4-HYDROXYBUTYL)NITROSAMINE, 3817-11-6, DIMETHY, Carcinogen: DIETHYLNITROSAMINE, 55-18-5, N-METHYL-N-NITROSOUREA, 684-93-5, N-BUTYL-N-(4-HYDROXYBUTYL)NITROSAMINE, 3817-11-6, DIMETHY, Dose [Inhibitor]: 0, 0.1% IN THE DIET FOR 30 D BEGINNING 1 DAY PRIOR TO CARCINOGEN TREATMENT (STUDY DURATION: 28 WK), Species: RAT, Strain/Sex: F344/MALE, Target Tissue: Type of Lesion: THYROID: CARCINOMA, Dose [Carcinogen]: 100 MG/KG BW DEN ONCE FOLLOWED BY 20 MG/KG BW MNU 4 TIMES AND 0.05% BBN IN DRINKING WATER DURING FIRST 2 WK THEN 40 MG/K, Promoter: NONE USED) is given as 7%, 8%, -14%, not significant. The “tumour outcome (control, treated, inhibition, significance)” value (Carcinogen: DIETHYLNITROSAMINE, 55-18-5, N-METHYL-N-NITROSOUREA, 684-93-5, N-BUTYL-N-(4-HYDROXYBUTYL)NITROSAMINE, 3817-11-6, DIMETHY, Carcinogen: DIETHYLNITROSAMINE, 55-18-5, N-METHYL-N-NITROSOUREA, 684-93-5, N-BUTYL-N-(4-HYDROXYBUTYL)NITROSAMINE, 3817-11-6, DIMETHY, Dose [Inhibitor]: 0, 0.1 IN THE DIET FOR 30 D BEGINNING 1 DAY PRIOR TO CARCINOGEN TREATMENT (STUDY DURATION: 28 WK), Species: RAT, Strain/Sex: F344/MALE, Target Tissue: Type of Lesion: SMALL INTESTINE: ADENOMA, Dose [Carcinogen]: 100 MG/KG BW DEN ONCE FOLLOWED BY 20 MG/KG BW MNU 4 TIMES AND 0.05% BBN IN DRINKING WATER DURING FIRST 2 WK THEN 40 MG/K, Promoter: NONE USED) was 33%, 31%, 6%, not significant, the “tumour outcome (control, treated, inhibition, significance)” value (Carcinogen: DIETHYLNITROSAMINE, 55-18-5, N-METHYL-N-NITROSOUREA, 684-93-5, N-BUTYL-N-(4-HYDROXYBUTYL)NITROSAMINE, 3817-11-6, DIMETHY, Carcinogen: DIETHYLNITROSAMINE, 55-18-5, N-METHYL-N-NITROSOUREA, 684-93-5, N-BUTYL-N-(4-HYDROXYBUTYL)NITROSAMINE, 3817-11-6, DIMETHY, Dose [Inhibitor]: 0.1% IN THE DIET FOR 30 D BEGINNING 1 DAY PRIOR TO CARCINOGEN TREATMENT (STUDY DURATION: 28 WK), Species: RAT, Strain/Sex: F344/MALE, Target Tissue: Type of Lesion: URINARY BLADDER: CARCINOMA, Dose [Carcinogen]: 100 MG/KG BW DEN ONCE FOLLOWED BY 20 MG/KG BW MNU 4 TIMES AND 0.05% BBN IN DRINKING WATER DURING FIRST 2 WK THEN 40 MG/K, Promoter: NONE USED) was 7%, 0%, 100%, not significant and the “tumour outcome (control, treated, inhibition, significance)” value (Carcinogen: DIETHYLNITROSAMINE, 55-18-5, N-METHYL-N-NITRSOUREA, 684-93-5, N-BUTYL-N-(4-HYDROXYBUTYL)NITROSAMINE, 3817-11-6, DIMETHYL, Carcinogen: DIETHYLNITROSAMINE, 55-18-5, N-METHYL-N-NITRSOUREA, 684-93-5, N-BUTYL-N-(4-HYDROXYBUTYL)NITROSAMINE, 3817-11-6, DIMETHYL, Dose [Inhibitor]: 0, 0.1% IN THE DIET FOR 30 D BEGINNING 1 DAY PRIOR TO CARCINOGEN TREATMENT (STUDY DURATION: 28 WK), Species: RAT, Strain/Sex: F344/MALE, Target Tissue: Type of Lesion: URINARY BLADDER: PAPILLOMA, Dose [Carcinogen]: 100 MG/KG BW DEN ONCE FOLLOWED BY 20 MG/KG BW MNU 4 TIMES AND 0.05% BBN IN DRINKING WATER DURING FIRST 2 WK THEN 40 MG/K, Promoter: NONE USED) was 7%, 0%, 100%, not significant. For the same molecule, the “tumour outcome (control, treated, inhibition, significance)” value (Carcinogen: N-BUTYL-N(4-HYDROXYBUTYL)NITROSAMINE (3817-11-6), Dose [Inhibitor]: 0.5 UMOL/G IN DIET BEGINNING 1 WK BEFORE CARCINOGEN EXPOSURE (STUDY DURATION: 16 WK), Species: RAT, Strain/Sex: WISTAR/MALE, Target Tissue: Type of Lesion: URINARY BLADDER: PAPILLOMA, Dose [Carcinogen]: 0.025% IN DRINKING WATER FOR 15 WK, Promoter: NONE USED) was 38/40 (95%), 26/30 (87%), 8%, not significant, the “tumour outcome (control, treated, inhibition, significance)” value (Carcinogen: N-BUTYL-N(4-HYDROXYBUTYL)NITROSAMINE (3817-11-6), Dose [Inhibitor]: 0.5 UMOL/G IN DIET BEGINNING 1 WK BEFORE CARCINOGEN EXPOSURE (STUDY DURATION: 16 WK), Species: RAT, Strain/Sex: WISTAR/MALE, Target Tissue: Type of Lesion: URINARY BLADDER: TRANSITIONAL CELL CARCINOMA, Dose [Carcinogen]: 0.025% IN DRINKING WATER FOR 15 WK, Promoter: NONE USED) was 4/40 (10%), 4/30 (13%), -30%, not significant and the “tumour outcome (control, treated, inhibition, significance)” value (Carcinogen: N-NITROSOBENZYLMETHYLAMINE, 937-40-6, Dose [Inhibitor]: 0, 3 UMOL/G DIET BEGINNING 2 WK PRIOR TO CARCINOGEN TREATMENT AND CONTINUING FOR 8 WK POST CARCINOGEN TREATMENT (STUDY D, Species: RAT, Strain/Sex: F344/MALE, Target Tissue: Type of Lesion: ESOPHAGUS: TUMOR, Dose [Carcinogen]: 0.5 MG/KG 1/WK FOR 15 WK, Promoter: NONE USED) was 100%, 13%, 87%, not calculated. The “tumour outcome (control, treated, inhibition, significance)” value (Carcinogen: N-NITROSOBENZYLMETHYLAMINE, 937-40-6, Dose [Inhibitor]: 0, 3 UMOL/G IN DIET BEGINNING 2 WK PRIOR TO CARCINOGEN TREATMENT AND CONTINUING FOR DURATION OF STUDY (STUDY DURATION: 2, Species: RAT, Strain/Sex: F344/MALE, Target Tissue: Type of Lesion: ESOPHAGUS: TUMORS, Dose [Carcinogen]: 0.5 MG/KG BW IN 0.1 ML OF DMSO 1/WK FOR 15 WK, Promoter: NONE USED) was 100%, 13%, 87%, not calculated, the “tumour outcome (control, treated, inhibition, significance)” value (Carcinogen: N-NITROSOBENZYLMETHYLAMINE, 937-40-6, Dose [Inhibitor]: 0, 6 UMOL/G DIET BEGINNING 2 WK PRIOR TO CARCINOGEN TREATMENT AND CONTINUING FOR 8 WK POST CARCINOGEN TREATMENT (STUDY D, Species: RAT, Strain/Sex: F344/MALE, Target Tissue: Type of Lesion: ESOPHAGUS: TUMOR, Dose [Carcinogen]: 0.5 MG/KG 1/WK FOR 15 WK, Promoter: NONE USED) was 100%, 0%, 100%, not calculated and the “tumour outcome (control, treated, inhibition, significance)” value (Carcinogen: N-NITROSOBENZYLMETHYLAMINE, 937-40-6, Dose [Inhibitor]: 0, 6 UMOL/G IN DIET BEGINNING 2 WK PRIOR TO CARCINOGEN TREATMENT AND CONTINUING FOR DURATION OF STUDY (STUDY DURATION: 2, Species: RAT, Strain/Sex: F344/MALE, Target Tissue: Type of Lesion: ESOPHAGUS: TUMORS, Dose [Carcinogen]: 0.5 MG/KG BW IN 0.1 ML OF DMSO 1/WK FOR 15 WK, Promoter: NONE USED) was 15/15 (100%), 0/15 (0%), 100%, not calculated. For the same molecule, the “tumour outcome (control, treated, inhibition, significance)” value (Carcinogen: N-NITROSOBIS(2-OXOPROPYL)AMINE [60599-38-4], Dose [Inhibitor]: 3 UMOL IN DIET FOR 49 WK BEGINNING 2 WK POST LAST CARCINOGEN DOSE (STUDY DURATION: 52 WK), Species: HAMSTER, Strain/Sex: SYRIAN/FEMALE, Target Tissue: Type of Lesion: LIVER: CHOLANGIOCELLAR ADENOMA, Dose [Carcinogen]: 20 MG/KG BW 1X/WK FOR 2 WK (STUDY DURATION: 52 WK), Promoter: NONE) was 19/25 (76.0%), 20/28 (71.4%), 6%, not significant, the “tumour outcome (control, treated, inhibition, significance)” value (Carcinogen: N-NITROSOBIS(2-OXOPROPYL)AMINE [60599-38-4], Dose [Inhibitor]: 3 UMOL IN DIET FOR 49 WK BEGINNING 2 WK POST LAST CARCINOGEN DOSE (STUDY DURATION: 52 WK), Species: HAMSTER, Strain/Sex: SYRIAN/FEMALE, Target Tissue: Type of Lesion: LIVER: CHOLANGIOCELLULAR ADENOMA, Dose [Carcinogen]: 20 MG/KG BW 1X/WK FOR 2 WK (STUDY DURATION: 52 WK), Promoter: NONE) was 19/25 (76.0%), 23/28 (82.1%), -8%, not significant and the “tumour outcome (control, treated, inhibition, significance)” value (Carcinogen: N-NITROSOBIS(2-OXOPROPYL)AMINE [60599-38-4], Dose [Inhibitor]: 3 UMOL IN DIET FOR 49 WK BEGINNING 2 WK POST LAST CARCINOGEN DOSE (STUDY DURATION: 52 WK), Species: HAMSTER, Strain/Sex: SYRIAN/FEMALE, Target Tissue: Type of Lesion: LIVER: HEPATOCELLULAR ADENOMA, Dose [Carcinogen]: 20 MG/KG BW 1X/WK FOR 2 WK (STUDY DURATION: 52 WK), Promoter: NONE) was 18/25 (72.0%), 16/28 (57.1%), 21%, not significant.
